Experimental data published in ChEMBL document CHEMBL1146503, “Effects of natural flavones and flavonols on the kinase activity of Cdk5” (J Nat Prod, 2004).
pEC50: −log10 of the molar value.

The compounds below were run against Cyclin-dependent kinase 5 (Rattus norvegicus, UniProt Q03114) (assay: Inhibition of rat fetal brain CDK5 assessed as phosphorylated histone H1 levels by immuno-precipitation).
Chain of Cyclin-dependent kinase 5 (Q03114 whole entry): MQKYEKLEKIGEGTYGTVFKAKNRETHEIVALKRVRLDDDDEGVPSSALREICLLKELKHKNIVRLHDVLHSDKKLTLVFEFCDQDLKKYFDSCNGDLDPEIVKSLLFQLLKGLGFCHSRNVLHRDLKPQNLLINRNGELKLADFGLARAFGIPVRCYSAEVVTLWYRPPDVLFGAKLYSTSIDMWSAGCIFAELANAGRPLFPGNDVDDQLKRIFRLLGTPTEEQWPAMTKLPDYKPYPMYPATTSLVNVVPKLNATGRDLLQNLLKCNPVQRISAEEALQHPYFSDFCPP
Format: tissue-based
`COc1c(O)cc2oc(-c3ccc(O)c(O)c3)cc(=O)c2c1O` [EUPAFOLIN] was tested, and the pEC50 was 4.40. `O=c1c(O)c(-c2ccc(O)cc2)oc2cc(O)cc(O)c12` [KAEMPFEROL] gave a pEC50 of 4.18. `O=c1cc(-c2ccc(O)cc2)oc2cc(O)cc(O)c12` [APIGENIN] showed a pEC50 of under 3.60. `O=c1c(O)c(-c2cc(O)c(O)c(O)c2)oc2cc(O)cc(O)c12` [MYRICETIN] was tested, and the pEC50 was 4.15. For `O=c1cc(-c2ccc(O)c(O)c2)oc2cc(O)cc(O)c12` [LUTEOLIN], the pEC50 was under 3.60. With `COc1c(O)cc2oc(-c3ccc(O)cc3)cc(=O)c2c1O` [HISPIDULIN] the pEC50 was 4.72. In the case of `COc1cc2oc(-c3ccccc3)cc(=O)c2c(OC)c1O`, the pEC50 was under 3.60. With `COc1cc(-c2oc3c(OC)c(OC)c(OC)c(O)c3c(=O)c2OC)ccc1O` the pEC50 was under 4.60.
